{"source": "patent US6040149A", "about": "“Assay for identifying agents which act on the ceramide-activated protein kinase, kinase suppressor of ras, and methods of using said agents” (priority 1997, dated 2000)", "test_system": "neutral sphingomyelinase", "assay": "Sphingomyelin and ceramide concentrations in a cell-free system (HL-60 nuclei-free supernate)", "type": "biochemical, human (HL-60 cells)", "protocol": "TNF-α effects on sphingomyelin (A) and ceramide (B) concentrations in a cell-free system. HL-60 cells were grown in RPMI 1640 medium supplemented with 10% bovine calf serum and amino acids. To measure sphingomyelin, cells were resuspended (1×10^6 ml^-1), labeled for 48 hours in medium with [^3 H]choline (1 μCi ml^-1), in serum-free medium containing bovine insulin (5 μg ml^-1) and human transferrin (5 μg ml^-1). After 3 hours, cells were resuspended (150×10^6 ml^-1) in homogenization buffer (50 mM NaF, 5 mM EGTA, and 25 mM Hepes, pH 7.4), disrupted at 4° C. with 150 strokes of a tight-fitting Dounce homogenizer (Fisher Scientific, Pittsburgh, Pa.), and centrifuged for 5 minutes (500 g). The nuclei-free supernate was first incubated for 5 minutes at 4° C. with 30 nM human TNF-α (Genentech, South San Francisco, Calif.) or diluent (50 mM Hepes, pH 7.4). At time zero, 15 μl of supernate (112 μg per incubation) were added to a reaction mixture containing 30 μl of 25 mM Hepes, pH 7.4, 30 μl of 750 μM ATP, and 75 μl of reaction buffer (50 mM Hepes, pH 7.4 and 20 mM MgCl2) at 22° C. The reaction was terminated with CHCl3 :CH3 OH:HCl (100:100:1, v/v/v) and 150 μl of balanced salt solution (135 mM NaCl, 4.5 mM KCl, 1.5 mM CaCl2, 0.5 mM MgCl2, 5.6 mM glucose, and 10 mM Hepes, pH 7.2) containing 20 mM EDTA. Lipids in the organic phase extract were subjected to alkaline methanolysis to remove glycerophospholipids. Sphingomyelin recovery in the nuclei-free supernate was 93% of that in intact cells. A measure of 10^6 cell equivalents of supernate contained 50 μg of protein. Sphingomyelin was resolved by thin-layer chromatography (TLC) with CHCl3 :CH3 OH:CH3 COOH:H2 O (25:15:4:1.5) as solvent, identified by iodine vapor staining and quantified by liquid scintillation spectrometry. Ceramide was quantified with the diacylglycerol kinase reaction. Values (mean) are derived from triplicate determinations from one experiment representative of three similar studies for sphingomyelin and four similar studies for ceramide.\nThe binding of TNF-α to its receptor is detectable within 2 minutes and maximal by 5 to 10 minutes at 4° C. in membranes derived from HL-60 cells. Therefore, supernates from HL-60 cells, collected after a low-speed centrifugation to remove nuclei, were first incubated with TNF-α for 5 minutes at 4° C. to allow the formation of TNF-receptor complexes. Thereafter, reactions were initiated by warming supernates to 22° C. in a reaction mixture containing adenosine triphosphate (ATP) and Mg^2+ at pH 7.4.\nThese conditions were adopted to allow for activation of neutral sphingomyelinase. Under these conditions, TNF-α induced a time- and concentration-dependent reduction in sphingomyelin content (FIG. 9A). The effect of TNF-α was evident at 1 minute and maximal by 7.5 minutes. Sphingomyelin concentrations decreased 27% from a control concentration of 10.4±0.5 (mean±SEM) to 7.6±0.2 nmol per milligram (nmol mg^-1) of supernate protein (P<0.001). […] Concentrations of TNF-α of 300 pM were effective, with a maximal effect at 3 nM TNF-α [effective dose (ED50)≈500 pM]. Under the same conditions, ceramide increased quantitatively from 1.8±0.3 to 4.0±0.5 nmol mg^-1 (FIG. 9B). This effect was detectable at 1 minute (P<0.001) and maximal by 7.5 minutes. Thus, 2.8 nmol of sphingomyelin per milligram of supernate protein were lost for each 2.2 nmol of ceramide per milligram of supernate protein that was generated. […] Other choline-containing lipids, including phosphatidyl-choline, lysophosphatidylcholine, sphingosylphosphorylcholine, and 1,2-diacylglycerol were not affected by TNF-α."}
{"substance": "TNF-α", "values": [{"measurement": "effect on other choline-containing lipids and 1,2-diacylglycerol", "setting": "TNF-α", "value": "not affected"}, {"measurement": "decrease in sphingomyelin concentration", "setting": "TNF-α 30 nM, cell-free", "value": 27, "unit": "%"}, {"measurement": "ceramide generated", "setting": "TNF-α, cell-free", "value": "2.2 nmol per milligram of supernat"}, {"measurement": "sphingomyelin lost", "setting": "TNF-α, cell-free", "value": "2.8 nmol per milligram of supernat"}, {"measurement": "sphingomyelin concentration", "setting": "after TNF-α, control 10.4±0.5, mean±SEM, P<0.001", "value": "7.6±0.2 nmol per milligram (nmol mg^-1) of supernate protein"}, {"measurement": "ceramide concentration", "setting": "after TNF-α, from 1.8±0.3", "value": "4.0 ± 0.5", "unit": "nmol/mg"}, {"measurement": "ED50 (sphingomyelin reduction)", "setting": "cell-free", "value": "≈ 500 pM"}, {"measurement": "concentration of maximal effect (sphingomyelin reduction)", "setting": "cell-free", "value": 3, "unit": "nM"}, {"measurement": "effective concentration (sphingomyelin reduction)", "setting": "cell-free", "value": 300, "unit": "pM"}, {"measurement": "onset of sphingomyelin reduction", "setting": "cell-free", "value": 1, "unit": "min"}, {"measurement": "time to maximal ceramide increase", "setting": "cell-free", "value": "≤ 7.5", "unit": "min"}, {"measurement": "time to maximal sphingomyelin reduction", "setting": "cell-free", "value": "≤ 7.5", "unit": "min"}, {"measurement": "onset of ceramide increase", "setting": "cell-free, P<0.001", "value": 1, "unit": "min"}]}
